This note sets out measurements from patent publication US20240409585A1, “MACROCYCLIC IMMUNOMODULATORS” (priority 2021, published 2024).

Each structure is given as a SMILES string. Bridge positions count the residues as written; N and C are the ends. Square brackets hold non-standard residues; d marks the D form. Peptide text beside a SMILES is read from it. * marks the point of attachment. ξ: configuration not given here. Phe(4-COOH) = N[C@@H](Cc1ccc(C(=O)O)cc1)C(=O)O; Bip = N[C@@H](Cc1ccc(-c2ccccc2)cc1)C(=O)O; Phe(3-Me) = Cc1cccc(C[C@H](N)C(=O)O)c1; Val(3-OH) = CC(C)(O)[C@H](N)C(=O)O; ξPhe(2-Me) = Cc1ccccc1CC(N)C(=O)O; 4Pal = N[C@@H](Cc1ccncc1)C(=O)O; 3Thi = N[C@@H](Cc1ccsc1)C(=O)O; Cha = N[C@@H](CC1CCCCC1)C(=O)O; Thr(3ξ) = CC(O)[C@H](N)C(=O)O; hSer = N[C@@H](CCO)C(=O)O; Carboxymethyl = O=C(O)C*; NMeA = CN[C@@H](C)C(=O)O; Dab = NCC[C@H](N)C(=O)O; Piv = CC(C)(C)C(=O)*

The target of this test is T1, PE-labeled human PD-L1-Ig binding to Jurkat cell line over-expressing human PD-1 (Jurkat-PD-1) (Homo sapiens, UniProt Q15116).
T1 construct: expressed in transfected cells; host or cells: Jurkat
T1 sequence (Q15116 25-288): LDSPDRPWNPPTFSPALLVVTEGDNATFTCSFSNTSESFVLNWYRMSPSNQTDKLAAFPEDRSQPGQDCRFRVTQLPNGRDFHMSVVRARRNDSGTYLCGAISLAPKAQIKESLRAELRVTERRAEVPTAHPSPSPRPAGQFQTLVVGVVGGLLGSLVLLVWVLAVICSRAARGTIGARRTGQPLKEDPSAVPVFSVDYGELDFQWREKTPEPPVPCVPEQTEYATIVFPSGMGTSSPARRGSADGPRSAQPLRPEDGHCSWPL
Kind of test: Jurkat-PD-1 Cell Binding High-Content Screening Assay (CBA): Method 1. The conditions noted are these: Jurkat-hPD-1 cells, PE-labeled PD-L1-Ig 20 nM final; read-out: Jurkat HPDL1 PD1 IC50 (uM) (Method 1).
On to `CC(C)C[C@@H]1NC(=O)[C@H](CCCNC(=N)N)NC(=O)[C@@H](CC(C)C)NC(=O)[C@H](C)N(C)C(=O)[C@H](CCCNC(=N)N)NC(=O)[C@H](Cc2ccc(-c3ccccc3)cc2)NC(=O)[C@H](C(C)C)NC(=O)[C@H](Cc2c[nH]c3ccccc23)NC(=O)[C@H](CC(=O)O)NC(=O)[C@H](Cc2ccc(O)cc2)NC(=O)[C@H](CCC(N)=O)NC(=O)CSC[C@@H](C(=O)N[C@@H](C)C(N)=O)NC(=O)[C@H](CO)NC(=O)[C@H](C(C)C)NC1=O` [Compound 1029] ({CH2CO}-QYDWV[Bip]R[NMeA][dL]RLVSCA-NH2; thioether N-14), for which the IC50 (as a rule, the concentration at which inhibition is half-maximal) is 0.04 µM.

For the molecule `CC(C)C[C@H]1NC(=O)[C@H](C)N(C)C(=O)[C@H](Cc2ccc(OCC(=O)O)cc2)NC(=O)[C@H](Cc2ccc(-c3ccccc3)cc2)NC(=O)[C@H](Cc2ccc(C(=O)O)cc2)NC(=O)[C@H](Cc2c[nH]c3ccccc23)NC(=O)[C@H](CC(=O)O)NC(=O)[C@H](Cc2ccc(OCC(=O)O)cc2)NC(=O)[C@H](Cc2ccsc2)NC(=O)CSC[C@@H](C(=O)N[C@@H](CCN)C(N)=O)NC(=O)[C@H](CO)NC(=O)[C@H](C(C)(C)O)NC(=O)[C@H](CC2CCCCC2)NC(=O)[C@H](CC(N)=O)NC1=O` [Compound 2131] ({CH2CO}-[3Thi]Y(Carboxymethyl)DW[Phe(4-COOH)][Bip]Y(Carboxymethyl)[NMeA][dL]N[Cha][Val(3-OH)]SC[Dab]-NH2; thioether N-14), the IC50 was 0.07 µM. `CC(C)C[C@@H]1NC(=O)[C@H](Cc2c[nH]c3ccccc23)NC(=O)[C@H](CC(=O)O)NC(=O)[C@H](Cc2ccc(O)cc2)NC(=O)[C@H](Cc2ccccc2)NC(=O)CSC[C@@H](C(=O)N[C@@H](C)C(N)=O)NC(=O)[C@H](CO)NC(=O)[C@H](C(C)C)NC(=O)[C@H](CC(C)C)NC(=O)[C@H](CC(N)=O)NC(=O)[C@@H](CCCCN)NC(=O)[C@H](C)N(C)C(=O)[C@H](C(C)C)NC(=O)[C@H](Cc2ccc(-c3ccccc3)cc2)NC1=O` [Compound 1793] ({CH2CO}-FYDWL[Bip]V[NMeA][dK]NLVSCA-NH2; thioether N-14): the IC50 worked out at 0.15 µM.

On to `CC(C)C[C@@H]1NC(=O)[C@H](Cc2c[nH]c3ccccc23)NC(=O)[C@H](CC(=O)O)NC(=O)[C@H](CCO)NC(=O)[C@H](Cc2ccccc2)NC(=O)CSC[C@@H](C(=O)N[C@@H](C)C(=O)N[C@@H](CCC(=O)O)C(N)=O)NC(=O)[C@H](CO)NC(=O)[C@H](C(C)C)NC(=O)[C@H](CC(C)C)NC(=O)[C@H](CC(N)=O)NC(=O)[C@@H](CC(C)C)NC(=O)[C@H](C)N(C)C(=O)[C@H](C(C)C)NC(=O)[C@H](Cc2ccc(-c3ccccc3)cc2)NC1=O` [Compound 2009] ({CH2CO}-F[hSer]DWL[Bip]V[NMeA][dL]NLVSCAE-NH2; thioether N-14), for which the IC50 is 0.02 µM. `CC(C)C[C@@H]1NC(=O)[C@H](CCN)NC(=O)[C@@H](CC(C)C)NC(=O)[C@H](C)N(C)C(=O)[C@H](CCC(=O)O)NC(=O)[C@H](Cc2ccc(-c3ccccc3)cc2)NC(=O)[C@H](C(C)C)NC(=O)[C@H](Cc2c[nH]c3ccccc23)NC(=O)[C@H](CC(=O)O)NC(=O)[C@H](Cc2ccc(OCC(=O)O)cc2)NC(=O)[C@H](CC(N)=O)NC(=O)CSC[C@@H](C(=O)NCC(N)=O)NC(=O)[C@H](C(C)O)NC(=O)[C@H](C(C)C)NC1=O` (stereo partly drawn) [Compound 2086] ({CH2CO}-NY(Carboxymethyl)DWV[Bip]E[NMeA][dL][Dab]LV[Thr(3ξ)]CG-NH2; thioether N-14): the IC50 was 0.2 µM. Regarding `CC[C@H](C)[C@@H]1NC(=O)[C@H](Cc2ccc(-c3ccccc3)cc2)NC(=O)[C@H](C(C)C)NC(=O)[C@H](Cc2c[nH]c3ccccc23)NC(=O)[C@H](CC(=O)O)NC(=O)[C@H](Cc2ccncc2)NC(=O)[C@H](Cc2ccncc2)NC(=O)CSC[C@@H](C(=O)N[C@@H](C)C(N)=O)NC(=O)[C@H]([C@@H](C)O)NC(=O)[C@H](C(C)C)NC(=O)[C@H](CC(C)C)NC(=O)[C@H](CCN)NC(=O)[C@@H](CC(C)C)NC(=O)[C@H](C)N(C)C1=O` [Compound 1410] ({CH2CO}-[4Pal][4Pal]DWV[Bip]I[NMeA][dL][Dab]LVTCA-NH2; thioether N-14), the IC50 was found to be 0.02 µM. For `Cc1cccc(C[C@@H]2NC(=O)[C@H](CC(=O)O)NC(=O)[C@H](Cc3ccc(C(=O)O)cc3)NC(=O)[C@H](Cc3ccc(OCC(=O)O)cc3)NC(=O)CSC[C@@H](C(=O)N[C@@H](CC(=O)O)C(N)=O)NC(=O)[C@H](CO)NC(=O)[C@H](C(C)C)NC(=O)[C@H](CC(C)C)NC(=O)[C@H](CC(N)=O)NC(=O)[C@@H](CC(C)C)NC(=O)[C@H](C)N(C)C(=O)[C@H](C(C)C)NC(=O)[C@H](Cc3ccc(-c4ccccc4)cc3)NC(=O)[C@H](CC(C)C)NC2=O)c1` [Compound 1602] ({CH2CO}-Y(Carboxymethyl)[Phe(4-COOH)]D[Phe(3-Me)]L[Bip]V[NMeA][dL]NLVSCD-NH2; thioether N-14), the half-maximal inhibitory concentration (IC50) was determined as 0.01 µM.

With `Cc1cccc(C[C@@H]2NC(=O)[C@H](CC(=O)O)NC(=O)[C@H](Cc3ccc(OCC(=O)O)cc3)NC(=O)[C@H](Cc3ccncc3)NC(=O)CSC[C@@H](C(=O)N[C@@H](CCN)C(N)=O)NC(=O)[C@H]([C@@H](C)O)NC(=O)[C@H](C(C)C)NC(=O)[C@H](CC3CCCCC3)NC(=O)[C@H](CCNC(=O)C(C)(C)C)NC(=O)[C@@H](CC(C)C)NC(=O)[C@H](C)N(C)C(=O)[C@H](Cc3ccc(OCC(=O)O)cc3)NC(=O)[C@H](Cc3ccc(-c4ccccc4)cc3)NC(=O)[C@H](Cc3ccc(OCC(=O)O)cc3)NC2=O)c1` [Compound 1865] ({CH2CO}-[4Pal]Y(Carboxymethyl)D[Phe(3-Me)]Y(Carboxymethyl)[Bip]Y(Carboxymethyl)[NMeA][dL][Dab](Piv)[Cha]VTC[Dab]-NH2; thioether N-14), the IC50 stood at 0.02 µM.

On to `CC(C)C[C@@H]1NC(=O)[C@H](Cc2c[nH]c3ccccc23)NC(=O)[C@H](CC(=O)O)NC(=O)[C@H](Cc2ccc(O)cc2)NC(=O)[C@H](Cc2ccccc2)NC(=O)CSC[C@@H](C(=O)NCC(N)=O)NC(=O)[C@H](CO)NC(=O)[C@H](C(C)C)NC(=O)[C@H](CC(C)C)NC(=O)[C@H](CC(=O)O)NC(=O)[C@@H](CC(=O)O)NC(=O)[C@H](C)N(C)C(=O)[C@H](C(C)C)NC(=O)[C@H](Cc2ccc(-c3ccccc3)cc2)NC1=O` [Compound 1829] ({CH2CO}-FYDWL[Bip]V[NMeA][dD]DLVSCG-NH2; thioether N-14), for which the IC50 came out at 0.85 µM.

With `Cc1ccccc1CC1NC(=O)[C@H](C)N(C)C(=O)[C@H](CCCNC(=N)N)NC(=O)[C@H](Cc2ccc(-c3ccccc3)cc2)NC(=O)[C@H](C(C)C)NC(=O)[C@H](Cc2c[nH]c3ccccc23)NC(=O)[C@H](CC(=O)O)NC(=O)[C@H](Cc2ccc(O)cc2)NC(=O)[C@H](Cc2ccccc2)NC(=O)CSC[C@@H](C(=O)N[C@@H](C)C(N)=O)NC(=O)[C@H]([C@@H](C)O)NC(=O)[C@H](C(C)C)NC(=O)[C@H](CC(C)C)NC(=O)[C@H](CCCNC(=N)N)NC1=O` (stereo partly shown) [Compound 1065] ({CH2CO}-FYDWV[Bip]R[NMeA][ξPhe(2-Me)]RLVTCA-NH2; thioether N-14), the IC50 worked out at 0.11 µM.
